{"source": "paper PMC7335187", "about": "“Super-assembly of ER-phagy receptor Atg40 induces local ER remodeling at contacts with forming autophagosomal membranes” (Nature Communications, 2020)", "assay_type_in_all_cases": "binding", "key": {"[1]": {"target": "Atg8 (Saccharomyces cerevisiae, UniProt P38182, K26P)", "sequence (P38182 1-116 K26P)": "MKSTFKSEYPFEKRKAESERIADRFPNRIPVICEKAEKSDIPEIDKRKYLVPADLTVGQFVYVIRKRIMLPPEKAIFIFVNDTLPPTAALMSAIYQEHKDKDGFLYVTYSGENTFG", "assay": "biochemical", "quoted_text": "ITC experiments were performed using Microcal iTC200 calorimeter (Malvern Panalytical), with stirring at 1000 rpm at 25 °C. Atg40, FAM134B, SEC62, and RTN3 peptides were prepared as injection samples from the syringe. […] In total, 200 μl Atg8, LC3A, LC3B, LC3C, GABARAP, GABARAPL1, and GABARAPL2 with 10 times lower concentration than the syringe samples were filled in the cell. […] The titration involved 18 injections of 2 μl of the syringe sample at intervals of 120 s into a cell after one injection of 0.4 μl of syringe sample. Data sets obtained from the titration of the same syringe sample to the cell filled with buffer were used as reference data for subtraction of heat of dilution. MicroCal Origin 7.0 software was used for data analysis. Thermal measurement of the first injection of the syringe samples was removed from the analysis."}, "[2]": {"target": "GABARAPL1 WT (Homo sapiens, UniProt Q9H0R8)", "sequence (Q9H0R8 whole entry)": "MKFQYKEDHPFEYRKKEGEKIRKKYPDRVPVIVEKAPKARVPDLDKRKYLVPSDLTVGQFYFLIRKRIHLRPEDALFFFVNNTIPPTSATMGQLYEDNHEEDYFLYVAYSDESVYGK", "assay": "ITC of peptides with GABARAPL1", "conditions": "25 °C, ± fitting error", "method": "(§1) Some of peptides (Supplementary Table 4) and all proteins except Atg40-6His were expressed in E. coli BL21 (DE3). Bacteria were cultured at 37 °C until OD600 became 0.8–1.0 and further cultured at 16 °C with 100 μM IPTG overnight. After centrifugation, the pellets were resuspended with 20 ml PBS with 0.5 mM EDTA and lysed by sonication for 10 min. After centrifugation, the supernatants were incubated with GST-accept resin (Nacalai tesque). After three times wash by PBS, the proteins were eluted with glutathione buffer (10 mM glutathione and 50 mM Tris pH 8.0). The buffer of the eluates was exchanged with PBS by a Bio-Scale Mini BioGel P-6 desalting column (Bio-Rad). After incubation with GST-fused HRV 3 C protease at 4 °C overnight, the samples were subjected to a GST-accept resin column to remove excised GST and the protease. RTN3^245–264-GABARAP was purified by cation-exchange chromatography using CM Sepharose FF column (GE Healthcare) with 500 mM MES pH 6.0 as buffer B and 50 mM MES pH 6.0 and 1 M NaCl as buffer C. The samples were further subjected to size-exclusion chromatography with 20 mM HEPES pH 6.8, 150 mM sodium chloride except for mCherry-Atg8-CC^tetramer (20 mM HEPES pH 6.8, 500 mM sodium chloride) using a Superdex 75 10/300 or Superdex 200 26/60 column. […]"}, "[3]": {"target": "LC3A WT (Homo sapiens, UniProt Q9H492)", "assay": "ITC of peptides with LC3A", "conditions": "25 °C, ± fitting error", "method": "(§2) Some of peptides (Supplementary Table 4) and all proteins except Atg40-6His were expressed in E. coli BL21 (DE3). Bacteria were cultured at 37 °C until OD600 became 0.8–1.0 and further cultured at 16 °C with 100 μM IPTG overnight. After centrifugation, the pellets were resuspended with 20 ml PBS with 0.5 mM EDTA and lysed by sonication for 10 min. After centrifugation, the supernatants were incubated with GST-accept resin (Nacalai tesque). After three times wash by PBS, the proteins were eluted with glutathione buffer (10 mM glutathione and 50 mM Tris pH 8.0). The buffer of the eluates was exchanged with PBS by a Bio-Scale Mini BioGel P-6 desalting column (Bio-Rad). After incubation with GST-fused HRV 3 C protease at 4 °C overnight, the samples were subjected to a GST-accept resin column to remove excised GST and the protease. RTN3^245–264-GABARAP was purified by cation-exchange chromatography using CM Sepharose FF column (GE Healthcare) with 500 mM MES pH 6.0 as buffer B and 50 mM MES pH 6.0 and 1 M NaCl as buffer C. The samples were further subjected to size-exclusion chromatography with 20 mM HEPES pH 6.8, 150 mM sodium chloride except for mCherry-Atg8-CC^tetramer (20 mM HEPES pH 6.8, 500 mM sodium chloride) using a Superdex 75 10/300 or Superdex 200 26/60 column. As described in Supplementary Table 4, the Atg40^237–252 M245A and Atg40^237–252 D243A D247A peptides were synthesized by Cosmo Bio, and the FAM134B^453–460 and SEC62^361–368 peptides were synthesized by BEX Co., Ltd. The Atg40^234–252 peptide and its variants were prepared using Liberty Blue peptide synthesizer (CEM Corporation). After dissolving these synthesized peptides in 300 μl water with ~10 μl ammonium hydroxide, they were subjected to size-exclusion chromatography with 20 mM HEPES pH 6.8 containing 150 mM sodium chloride using a Superdex 75 10/300 column.\nPeptides used in ITC are listed in Supplementary Table 4. ITC experiments were performed using Microcal iTC200 calorimeter (Malvern Panalytical), with stirring at 1000 rpm at 25 °C. […]"}, "[4]": {"target": "LC3B WT (Rattus norvegicus, UniProt Q62625)", "assay": "ITC of peptides with LC3B", "conditions": "25 °C, ± fitting error", "description": "All plasmids for expression of recombinant proteins and peptides in bacteria were based on a pGEX6P-1 vector (GE Healthcare). Construction of pGEX6P-ScAtg8 (1-116) K26P and pGEX6P-rat LC3B (1-120) was previously described[35],[47]. All mutations were generated by PCR-based mutagenesis. The genes were amplified by PCR and inserted downstream of the HRV 3C protease recognition site by NEBuilder HiFi DNA Assembly Master Mix (New England Biolabs) except for that encoding human GABARAP (1-116), which was inserted using restriction enzymes for the NdeI and BamHI sites. Plasmids for expression of fusion proteins for crystallization were constructed by inserting the genes encoding Atg40^237–252, human FAM134B^450–468, human SEC62^361–376 with the T367D mutation, and human RTN3^245–264 isoform e into upstream of the sequence encoding Atg8 K26P of pGEX6P-Atg8 (the K26P mutation was introduced for stabilizing Atg8) or upstream of the sequence encoding GABARAP of pGEX6P-GABARAP (with the F3S V4T mutations for enhancing crystallization). For phase-separation experiments, the mCherry and BNDL1[25],[26] sequences were inserted into upstream and downstream of the ATG8 gene in pGEX6P-Atg8 K26P, respectively. pGEX-SNAP-40C was constructed by the removal of the HRV 3C protease recognition site and the insertion of the SNAP sequence from pSNAP-tag(T7) vector (New England Biolabs) with a linker (Gly–Gly–Gly–Ser–Gly–Gly–Gly) and Atg40^194–256 following a linker (Ser–Ala–Ser–Ser) to upstream and downstream of GST in pGEX6P-1 vector, respectively. In the construction of plasmids for peptide production, a Tyr residue was attached to their C termini for enabling the quantification by absorbance at 280 nm (Supplementary Table 4).\nSome of peptides (Supplementary Table 4) and all proteins except Atg40-6His were expressed in E. coli BL21 (DE3). Bacteria were cultured at 37 °C until OD600 became 0.8–1.0 and further cultured at 16 °C with 100 μM IPTG overnight. After centrifugation, the pellets were resuspended with 20 ml PBS with 0.5 mM EDTA and lysed by sonication for 10 min. […]"}, "[5]": {"target": "GABARAPL2 WT (Homo sapiens, UniProt P60520)", "sequence (P60520 whole entry)": "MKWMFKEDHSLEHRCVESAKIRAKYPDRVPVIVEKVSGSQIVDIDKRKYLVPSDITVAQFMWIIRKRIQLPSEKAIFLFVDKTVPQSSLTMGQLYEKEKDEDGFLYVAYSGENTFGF", "assay": "ITC of peptides with GABARAPL2", "conditions": "25 °C, ± fitting error", "method": "as §1"}, "[6]": {"target": "LC3C WT (Homo sapiens, UniProt Q9BXW4)", "sequence (Q9BXW4 whole entry)": "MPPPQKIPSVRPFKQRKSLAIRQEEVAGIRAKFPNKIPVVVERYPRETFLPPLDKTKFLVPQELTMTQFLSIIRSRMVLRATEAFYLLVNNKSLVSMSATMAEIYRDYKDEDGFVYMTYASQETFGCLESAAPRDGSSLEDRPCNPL", "assay": "ITC of peptides with LC3C", "conditions": "25 °C, ± fitting error", "method": "as §2\nPeptides used in ITC are listed in Supplementary Table 4. ITC experiments were performed using Microcal iTC200 calorimeter (Malvern Panalytical), with stirring at 1000 rpm at 25 °C. Atg40, FAM134B, SEC62, and RTN3 peptides were prepared as injection samples from the syringe. Concentrations of FAM134B, SEC62, and RTN3 peptides were 0.5 mM, whereas those of Atg40^234–252 and Atg40^237–252 peptides were 2.0 and 1.8 mM, respectively. In total, 200 μl Atg8, LC3A, LC3B, LC3C, GABARAP, GABARAPL1, and GABARAPL2 with 10 times lower concentration than the syringe samples were filled in the cell. As an exception, 1.8 mM Atg8 was filled in the cell when 1.8 mM Atg40^237–252 D243A D247A was in a syringe. The titration involved 18 injections of 2 μl of the syringe sample at intervals of 120 s into a cell after one injection of 0.4 μl of syringe sample. […]"}}, "note": "Where a SMILES comes first, the peptide text is derived from it."}
{"smiles": "CC[C@H](C)[C@H](NC(=O)[C@H](CC(=O)O)NC(=O)[C@H](CCC(=O)O)NC(=O)[C@H](CCSC)NC(=O)[C@H](Cc1ccccc1)NC(=O)[C@H](CC(=O)O)NC(=O)[C@H](Cc1ccc(O)cc1)NC(=O)[C@H](CC(=O)O)NC(=O)[C@H](CC(N)=O)NC(=O)[C@@H]1CCCN1C(=O)[C@H](Cc1ccccc1)NC(=O)[C@H](CCC(=O)O)NC(=O)[C@@H]1CCCN1C(=O)CN)C(=O)N[C@@H](CC(C)C)C(=O)N[C@@H](CC(=O)O)C(=O)N[C@@H](CCC(=O)O)C(=O)N[C@H](C(=O)O)[C@@H](C)O", "note": "[Atg40^237-252 WT] (H-GPEFPNDYDFMEDILDET-OH)", "values": [{"measurement": "Kd", "setting": "[1]", "value": "0.57 ± 0.51", "unit": "µM"}, {"measurement": "N (site), stoichiometry of binding", "setting": "[1]; ITC, 25 °C, peptide in syringe 2.0 or 1.8 mM, Atg8 in cell 10 times lower, single-site model, ± fitting error", "value": "0.90 ± 0.03"}]}
{"smiles": "CC[C@H](C)[C@H](NC(=O)[C@H](CCC(N)=O)NC(=O)[C@H](CC(=O)O)NC(=O)[C@H](CC(C)C)NC(=O)[C@H](CCC(=O)O)NC(=O)[C@H](CO)NC(=O)[C@H](CCC(N)=O)NC(=O)[C@H](CC(=O)O)NC(=O)[C@H](CC(C)C)NC(=O)[C@H](CC(C)C)NC(=O)[C@H](CCC(=O)O)NC(=O)[C@H](Cc1ccccc1)NC(=O)[C@H](CC(=O)O)NC(=O)[C@H](CC(=O)O)NC(=O)CNC(=O)[C@H](CCC(=O)O)NC(=O)[C@H](CCC(=O)O)NC(=O)[C@@H](NC(=O)[C@H](CC(=O)O)NC(=O)[C@@H](NC(=O)[C@H](CC(=O)O)NC(=O)[C@H](CCC(=O)O)NC(=O)[C@H](CCC(=O)O)NC(=O)[C@@H]1CCCN1C(=O)CN)[C@@H](C)O)[C@@H](C)O)C(=O)N[C@@H](CCC(=O)O)C(=O)N[C@@H](CO)C(=O)N[C@@H](CCC(=O)O)C(=O)N[C@@H](CC(C)C)C(=O)N[C@@H](Cc1ccc(O)cc1)C(=O)O", "note": "[FAM134B^444-470 WT]", "values": [{"measurement": "Kd", "setting": "[2]; 0.5 mM peptide in syringe, GABARAPL1 WT in cell 10 times lower, single-site model", "value": "0.12 ± 0.04", "unit": "µM"}, {"measurement": "Kd", "setting": "[3]; 0.5 mM peptide in syringe, LC3A WT in cell 10 times lower, single-site model", "value": "0.21 ± 0.03", "unit": "µM"}, {"measurement": "Kd", "setting": "[4]; 0.5 mM peptide in syringe, LC3B WT in cell 10 times lower, single-site model", "value": "0.62 ± 0.16", "unit": "µM"}, {"measurement": "Kd", "setting": "[5]; 0.5 mM peptide in syringe, GABARAPL2 WT in cell 10 times lower, single-site model", "value": "0.3 ± 0.1", "unit": "µM"}, {"measurement": "Kd", "setting": "[6]; 0.5 mM peptide in syringe, LC3C WT in cell 10 times lower, single-site model, read-out: Kd", "value": "1.11 ± 0.35", "unit": "µM"}]}
{"smiles": "CC[C@H](C)[C@H](NC(=O)[C@H](CCSC)NC(=O)[C@H](CCC(=O)O)NC(=O)[C@H](Cc1ccccc1)NC(=O)[C@H](CC(=O)O)NC(=O)[C@H](CC(N)=O)NC(=O)CNC(=O)[C@H](CC(N)=O)NC(=O)CNC(=O)[C@H](CO)NC(=O)[C@H](CO)NC(=O)[C@H](Cc1c[nH]cn1)NC(=O)[C@@H]1CCCN1C(=O)CN)C(=O)N[C@H](C(=O)N[C@@H](CCCCN)C(=O)N[C@@H](CCC(=O)O)C(=O)N[C@@H](CCC(=O)O)C(=O)N[C@@H](CC(C)C)C(=O)N[C@@H](CCC(=O)O)C(=O)N[C@@H](CCC(N)=O)C(=O)N[C@@H](CCC(N)=O)C(=O)N[C@H](C(=O)N[C@@H](CC(=O)O)C(=O)N[C@@H](Cc1ccc(O)cc1)C(=O)O)[C@@H](C)O)[C@@H](C)O", "note": "[SEC62^355-376 WT] (H-GPHSSGNGNDFEMITKEELEQQTDY-OH)", "values": [{"measurement": "N (site), stoichiometry of binding", "setting": "[2]; GABARAPL1 WT in cell", "value": "0.83 ± 0.01"}, {"measurement": "N (site), stoichiometry of binding", "setting": "[3]; LC3A WT in cell", "value": "0.78 ± 0.01"}, {"measurement": "N (site), stoichiometry of binding", "setting": "[4]; LC3B WT in cell, N fixed to 1.0 when fitting not convergent", "value": "0.74 ± 0.01"}, {"measurement": "N (site), stoichiometry of binding", "setting": "[5]; GABARAPL2 WT in cell, N fixed to 1.0 when fitting not convergent", "value": "0.78 ± 0.01"}, {"measurement": "N (site), stoichiometry of binding", "setting": "[6]; LC3C WT in cell, N fixed to 1.0 when fitting not convergent", "value": "0.46 ± 0.02"}]}
